In experiment [1] the target is T1, IDO1 (Homo sapiens, UniProt P14902). Description: IDO1 Cellular Assay in Hela Cells Stimulated with IFNγ. In kind it is cell-based. The following applies: IFNγ 100 ng/mL, 300 uM L-tryptophan, about 48 hours, fluorescence readout, read-out: IDO1 HELA Cell Assay, IC50. The gist of the method:
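HeLa cells stimulated with 100 ng/mL IFNγ, supplemented with 300 uM L-tryptophan, incubated 48 h at 37° C with ten 3-fold compound dilutions. Unstimulated cells served as Max-E control. Kynurenine detected by fluorescence (ex 400/em 510 nm) after overnight methyl isonipecotate reaction; IC50 by four-parameter logistic fit.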

For experiment [2], the target named is T1, IDO1. Description: IDO1 Human whole blood Assay. More on the design: Human whole blood was drawn in sodium heparin coated tubes from healthy internal donors; from tissue; host or cells: Human whole blood from healthy donors, stimulated with LPS and IFNγ. The following applies: LPS and IFNγ 100 ng/mL, 18 h, kynurenine by LC/MS/MS. The format is cell-based. The protocol: Compounds to be tested were serially diluted in ten 3-fold steps in DMSO starting from 10 mM. 3 μL of compound dilutions or DMSO alone were then dispensed from the dilution plate into a polypropylene 96-well assay plate containing 97 μL of RPMI using an Echo 555 acoustic liquid handler (Labcyte). LPS and IFNγ was prepared in RPMI to a 10× of final conc. (1000 ng/mL), final concentration is 100 ng/mL.
Human whole blood was drawn in sodium heparin coated tubes from healthy internal donors. Two hundred forty μL of blood was transferred to each of the wells of a v-bottom 96 well plate. Thirty μL of compound was transferred from intermediate dilution plate, and incubated for 15 min. Thirty μL from stimulants was then transferred to blood and mixed thoroughly. Plate was covered with breathable membrane and incubated at 37° C. for overnight (18 h).
On day 2 isotope labeled standard of kynurenine and tryptophan was made in water at 10× concentration and 30 μL was added to the blood at 3 μM final concentration. The assay plates were centrifuged at 300×G for 10 min with no brake to separate plasma from red blood cells. Sixty μL of plasma samples was removed without disturbing red blood cells. Plasma was diluted with RPMI in 1:1 ratio and proteins were precipitated out with two volume of acetonitrile. The plates were centrifuged at 4000×G for 60 min. Twenty μL of supernatant was carefully transferred to a 384 well plate containing 40 μL of 0.1% formic acid in water and analyzed by LC/MS/MS.
LC/MS/MS analyses were performed using Thermo Fisher's LX4-TSQ Quantum Ultra system. This system consists of four Agilent binary high-performance liquid chromatography (HPLC) pumps and a TSQ Quantum Ultra triple quadruple MS/MS instrument. For each sample, 5 μL were injected onto an Atlantis T3 column (2.1 mm×150 mm, 3 μm particle size) from Waters. The mobile phase gradient pumped at 0.8 mL/min was used to elute the analytes from the column at 25° C. The elution started at 0% B increasing linearly to 25% B at 6.5 min, holding at 25% for 1 min, re-equilibrating to 10 min. Mobile phase A consisted of 0.1% formic acid in water. Mobile phase B consisted of 0.1% of formic acid in acetonitrile. Data was acquired in positive mode using a HESI interface. The operational parameters for the TSQ Quantum Ultra instrument were a spray voltage of 4000 V, capillary temperature of 380° C., vaporizer temperature 400° C., shealth gas 60 arbitrary units, Aux gas 20 arbitrary units, tube lens 85 and collision gas 1.2 mTorr. SRM chromatograms of kynurenine (Q1: 209.2>Q3:94.0) and internal standard (Q1: 215.3>Q3:98.2) were collected for 90 sec. The peak area was integrated by Xcalibur Quan software. The ratios between the kynurenine generated in the reaction and 2D6-Kynurenine spiked-in internal standard were used to generate percentage inhibition and IC50 values. Compounds were titrated and IC50's were calculated by 4 parameter sigmoidal curve fitting formula.
The biological activity data of selective compounds using the IDO1 human whole blood assay described above are summarized in the table below.

The results in this text go back to patent US11478461B2, “[1.1.1] bicyclo compounds as indoleamine 2,3-dioxygenase inhibitors” (Merck Sharp & Dohme Corp., priority 2018, dated 2022).

pIC50: −log10 of the molar value.

The term pIC50 denotes the negative decadic logarithm of the IC50, by convention in mol/L.

T1 sequence (P14902 whole entry): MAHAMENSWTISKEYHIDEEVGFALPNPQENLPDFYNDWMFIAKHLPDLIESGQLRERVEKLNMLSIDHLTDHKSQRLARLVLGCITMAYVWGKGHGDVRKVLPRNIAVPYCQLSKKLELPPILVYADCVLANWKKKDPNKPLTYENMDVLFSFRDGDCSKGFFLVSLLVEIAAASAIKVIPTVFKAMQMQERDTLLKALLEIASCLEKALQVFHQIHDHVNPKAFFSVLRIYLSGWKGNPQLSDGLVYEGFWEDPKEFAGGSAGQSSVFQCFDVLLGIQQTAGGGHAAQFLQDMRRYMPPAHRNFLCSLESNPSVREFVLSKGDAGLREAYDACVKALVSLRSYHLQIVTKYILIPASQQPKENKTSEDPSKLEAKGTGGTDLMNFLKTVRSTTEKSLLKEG

As for `Cc1ccc(C(=O)NC23CC([C@@H](C)C(=O)Nc4ccc(F)cc4)(C2)C3)cc1Cl` [Example 36, 3-chloro-N-[3-[(1R)-2-(4-fluoroanilino)-1-methyl-2-oxo-ethyl]-1-bicyclo[1.1.1]pentanyl]-4-methyl-benzamide], the pIC50 on IDO1 [1] is 8.67; against IDO1 [2], 6.86.

With `CC(C(=O)Nc1ccc(F)cc1)C12CC(NC(=O)c3ccc(Cl)c(Cl)c3)(C1)C2` (single isomer, unassigned) [Example 9, 3,4-dichloro-N-(3-(1-((4-fluorophenyl)amino)-1-oxopropan-2-yl)bicyclo[1.1.1]pentan-1-yl)benzamide], the pIC50 is 8.81 on IDO1 [1] and 6.03 on IDO1 [2].

Turning to `O=C(NC12CC(C3(NC(=O)c4ccc(F)cc4)CC3)(C1)C2)c1ccc(Cl)c(Cl)c1` [Example 24, 3,4-Dichloro-N-(3-(1-(4-fluorobenzamido)cyclopropyl)bicyclo[1.1.1]pentan-1-yl)benzamide], the negative-log IC50 (pIC50) is 8.38 at IDO1 [1] and 6.40 against IDO1 [2].
